Marks after values point to notes of the source that are not given here.

The target in one experiment is T1, RNase A (Bos taurus, UniProt P61823).
T1 sequence (P61823 27-150): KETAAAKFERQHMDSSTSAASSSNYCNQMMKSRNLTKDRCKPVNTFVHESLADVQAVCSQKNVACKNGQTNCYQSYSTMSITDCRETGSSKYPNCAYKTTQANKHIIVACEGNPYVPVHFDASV
The note with it: interpolated to mbulk 0.91 m; cited from earlier work.

The target in experiment [1] is T2, carbonic anhydrase II (Bos taurus, UniProt P00921). Set-up: purchased Sigma-Aldrich C2522. The note with it: 1.0M GuHCl, carbonic anhydrase less than 30 μM; previous studies; cited from earlier work.
Experiment [2] addresses T2, carbonic anhydrase II. The experiment in a line: Carbonic anhydrase refolding yield by esterase activity (pNPA).
Procedure: Esterase activity assays were performed as a function of initial unfolded protein concentration and buffer composition to determine how equimolar concentrations of NaCl, ArgHCl, and GuHCl each affected refolding yield (FIG. 16).
High concentrations of carbonic anhydrase (>300 μM) were denatured in 6M GuHCl and equilibrated overnight. Refolding was initiated by dilution to 0.5M GuHCl with 50 mM Tris-HCl buffer, pH 7.5. This final GuHCl concentration was selected because it yields a mixture of active, refolded protein and aggregates. The distribution of this mixture was analyzed via esterase activity, size exclusion HPLC, and dynamic light scattering as described above.
Carbonic Anhydrase Esterase Activity—Esterase activity of carbonic anhydrase was assessed using para-nitrophenylacetate (pNPA) as the substrate as described previously. […] Briefly, 10 μl samples of carbonic anhydrase solution were added to 500 μl of Tris-HCl, pH 7.5 and 50 μl of 50 mM pNPA in acetonitrile. Kinetics of hydrolysis of pNPA was observed by the increase in absorbance at 400 nm due to the appearance of the paranitrophenolate ion (pNP^−). In all cases, the observed hydrolysis rate in absorbance units per second (AU/s) under these conditions was constant (pseudo-zero order). Hydrolysis rates were corrected for the hydrolysis of pNPA by the buffer for each type of buffer used. […] The active protein concentration data was reproducible to within 5-8% in replicated experiments.
Experiment [3] concerns the target T2, carbonic anhydrase II. The experiment can be described thus: Size exclusion HPLC of multimers formed during refolding of carbonic anhydrase. Set-up: purchased Sigma-Aldrich C2522; species or system bovine. The note with it: for A2, percentage of total carbonic anhydrase / A3-5, percentage of total carbonic anhydrase / A6-15, percentage of total carbonic anhydrase / M (monomer), percentage of total carbonic anhydrase / Large multimers, percentage of total carbonic anhydrase: [U]0 = 20 μM, 0.5 M additive; for Large multimers, percentage of total carbonic anhydrase: inferred by difference. The protocol: Size exclusion HPLC experiments were performed to analyze the distribution of multimers formed during refolding. CA was refolded with three different additives, 0.5M NaCl, 0.5M GuHCl, and 0.5M ArgHCl, relative to a base refolding buffers of 0.5M GuHCl, as done in the esterase activity assays above. […] Other than this protein concentration difference, these experiments allow direct comparison of how an additional 0.5M of the three different cations affect refolding.
The samples were not filtered prior to introduction into the HPLC column.
Size Exclusion HPLC—Size exclusion HPLC (SE-HPLC) experiments were performed on a Beckman System Gold HPLC instrument equipped with a Tosohaas G3000SWXL size exclusion column and a UV detector. 30 μl samples were introduced to the column by a constant flow of 1 ml/min mobile phase. Each sample ran for 15 minutes, with carbonic anhydrase eluting between 6 and 10 minutes, depending on its molecular weight and buffer. […] A mixture of lysozyme, carbonic anhydrase, and bovine serum albumin (monomer and dimer) was used as a standard to calibrate molecular weight to retention time. Using this calibration curve and the breakthrough time of the column, the largest multimer that could pass through the column was a 15-mer. When significant mass was missing from a chromatogram, large multimers were quantitated by difference. The presence of large multimers was confirmed via turbidity or dynamic light scattering for each buffer. The instrument was cleaned with 30 μl injections of 4M GuHCl, a denaturing concentration found to dissociate and elute precipitates and large soluble carbonic anhydrase multimers.
(In general: SEC sorts molecules by how far they enter the pores of the column.)

The target in experiment [4] is T3, insulin binding to immobilized monoclonal anti-insulin (Homo sapiens, UniProt P01308).
T3 construct: purchased Sigma-Aldrich (insulin); Fitzgerald Industries (antibody) I8530; 10-130 clone M322214
The experiment can be described thus: Surface plasmon resonance (Biacore 3000): globular protein association/dissociation kinetics in buffer with additive. The note with it: for effect on association rate of insulin and anti-insulin / effect on dissociation rate of insulin and anti-insulin: 0.5M, relative to 0.5M NaCl control. The protocol:
Surface plasmon resonance experiments were conducted to measure the effect of added ArgHCl and GuHCl on the kinetics of globular protein association and dissociation versus an equimolar salt control (NaCl). The data set shown in the figure is a composition of 8 different concentration runs plus replicates, for a total of 16 runs. At t=140 sec, the flow cell with immobilized anti-insulin was exposed to a constant concentration of insulin in the range of 2 to 188 nM for 3 minutes. During this 3 minutes, the antibody and antigen were free to associate and dissociate. The net reaction is the binding of free antigen in solution, resulting in an increase in detector response proportional to the mass of antigen bound. At t=320 sec, the insulin concentration in the flow cell inlet is returned to zero, and the bound antigen then dissociates from the surface. All 16 runs were simultaneously fit to a binding model by minimizing the squared residuals to yield the association and dissociation rate constants, ka and kd. This process was repeated to yield association, dissociation, and equilibrium constant data for the model systems in various buffers as shown in Table 4.
Globular Protein Association Kinetics—Protein association and dissociation rate constants, ka and kd, were measured for globular proteins via surface plasmon resonance on a Biacore 3000 instrument. Monoclonal anti-insulin was immobilized on a Biacore CM5 sensor chip via amine coupling. The amount of immobilized antibody was selected to give a detector response in the range of 50-100 RU when antigen was present. A reference surface was created by activating and deactivating the surface without coupling an antibody to it.
Different concentrations of insulin in the nanomolar range ([…]) were prepared by dilution and injected serially into the antibody-containing and reference flow cells. […] Pocker, Y. & Biswas, Subhasis, B. (1981) Biochemistry 20, 4354-4361. The dissociation rate was sufficiently fast in buffer that a regeneration buffer was not required. Kinetic constants were extracted by simultaneous fitting of ka and kd to each set of sensorgrams using a 1:1 kinetic model in the BIAevaluation 3.0 software package.
A general note: Surface plasmon resonance follows binding to a sensor surface in real time, without labels.

The target in the next experiment is T4, RNase T1 (Aspergillus oryzae, UniProt P00651).
T4 sequence (P00651 27-130): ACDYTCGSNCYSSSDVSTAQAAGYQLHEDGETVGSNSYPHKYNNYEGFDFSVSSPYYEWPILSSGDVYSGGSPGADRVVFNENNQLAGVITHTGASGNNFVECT
The note with it: interpolated to mbulk 1.10 m; cited from earlier work.

Experiment [5] addresses Human insulin (I8530), Sigma-Aldrich (human) (UniProt P01308). The experiment in a line: SPR, Biacore 3000, antibody immobilised on CM5, insulin as analyte, KD = kd/ka; HBS-EP + 0.5 M ArgHCl.
Experiment [6] has the same target. The experiment can be described thus: SPR; association rate constant in HBS-EP + 0.5 M GuHCl relative to HBS-EP + 0.5 M NaCl.
Experiment [7] has the same target. The experiment can be described thus: SPR, Biacore 3000, antibody immobilised on CM5, insulin as analyte, 1:1 model; HBS-EP + 0.5 M NaCl.
Experiment [8] has the same target. The experiment can be described thus: SPR, Biacore 3000, antibody immobilised on CM5, insulin as analyte, 1:1 model; HBS-EP + 0.5 M ArgHCl.
Experiment [9] shares this target. The experiment can be described thus: SPR; dissociation rate constant in HBS-EP + 0.5 M ArgHCl relative to HBS-EP + 0.5 M NaCl.
For experiment [10] the target is unchanged. The experiment can be described thus: SPR, Biacore 3000, antibody immobilised on CM5, insulin as analyte, 1:1 model; HBS-EP + 0.5 M GuHCl.
For experiment [11] the target is unchanged. The experiment in a line: SPR, Biacore 3000, antibody immobilised on CM5, insulin as analyte, KD = kd/ka; HBS-EP + 0.5 M GuHCl.
Experiment [12] has the same target. The experiment in a line: SPR, Biacore 3000, antibody immobilised on CM5, insulin as analyte, KD = kd/ka; HBS-EP + 0.5 M NaCl.
For experiment [13] the target is unchanged. The experiment in a line: SPR; association rate constant in HBS-EP + 0.5 M ArgHCl relative to HBS-EP + 0.5 M NaCl.
Experiment [14] shares this target. The experiment can be described thus: SPR; dissociation rate constant in HBS-EP + 0.5 M GuHCl relative to HBS-EP + 0.5 M NaCl.
Setting [15] is: 0.5 M additive in HBS-EP, pH 7.4, estimated error 15%.
Setting [16] is: 0.5 M additive, relative to HBS-EP + 0.5 M NaCl.

T2 sequence (P00921 whole entry): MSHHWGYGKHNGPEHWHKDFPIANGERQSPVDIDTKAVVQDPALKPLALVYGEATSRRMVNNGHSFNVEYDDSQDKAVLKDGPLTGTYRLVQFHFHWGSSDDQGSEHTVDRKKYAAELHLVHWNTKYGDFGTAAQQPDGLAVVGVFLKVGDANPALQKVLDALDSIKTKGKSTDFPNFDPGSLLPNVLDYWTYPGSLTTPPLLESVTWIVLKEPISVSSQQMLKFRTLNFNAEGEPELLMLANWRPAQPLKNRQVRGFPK
Chain of Human insulin (I8530), Sigma-Aldrich (human) (P01308 25-54 limits assumed, chain 1 of 2): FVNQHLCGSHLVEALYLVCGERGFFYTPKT
Chain of Human insulin (I8530), Sigma-Aldrich (human) (P01308 90-110 limits assumed, chain 2 of 2): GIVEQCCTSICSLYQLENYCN
T3 sequence (P01308 25-54 limits assumed): as the sequence (P01308 25-54 limits assumed, chain 1 of 2) above

For `OCC(O)CO` [Glycerol], the “Experimental ΓXP” value on RNase A was −1.7 ± 0.8^b.
Regarding `Cl.N=C(N)N` [GuHCl, Guanidinium chloride], the “yield of native protein” value at carbonic anhydrase II [1] is approximately 100%. The compound further returned a α/α0 at carbonic anhydrase II [2] (0.5 M additive, relative to 0.5M NaCl, base buffer 0.5 M GuHCl) of 8.2. On carbonic anhydrase II [2] (0.5 M additive, base buffer 0.5 M GuHCl, fit to second-order aggregation model), the “α (refolding selectivity parameter, kr/kagg)” value was determined as 77 µM. Besides, the “order of yield of active protein as a function of buffer additive” value at carbonic anhydrase II [2] (equimolar (0.5M) additives) was “NaCl<<ArgHCl<GuHCl”. Also, the “yield of monomeric protein” value on carbonic anhydrase II [3] (0.5M added, versus 0.5M NaCl) is “significantly increased”. On carbonic anhydrase II [3] (time 2 min), the “A2, percentage of total carbonic anhydrase” value (“A2, percentage” for short) is given as 39%; the “A3-5, percentage of total carbonic anhydrase” value (from here on “A3-5, percentage”) is on record as 8%; the “A6-15, percentage of total carbonic anhydrase” value (“A6-15, percentage” below) was determined as 0%; the “M (monomer), percentage of total carbonic anhydrase” value (“M (monomer), percentage” below) was found to be 42%. For the same compound, the “Large multimers, percentage of total carbonic anhydrase” value (from here on “Large multimers, percentage”) on carbonic anhydrase II [3] (time 2 min) is 11%. On carbonic anhydrase II [3] (time 20 min), the “A2, percentage” value is reported as 3%; the “A3-5, percentage” value amounted to 6%; the “A6-15, percentage” value is 0%; the “M (monomer), percentage” value is 82%. Further, the “Large multimers, percentage” value at carbonic anhydrase II [3] (time 20 min) came to 9%. For the same compound, at carbonic anhydrase II [3] (time 38 min), the “A2, percentage” value is reported as 1%; the “A3-5, percentage” value was 5%; the “A6-15, percentage” value was 0%; the “M (monomer), percentage” value is 85%. Further, the “Large multimers, percentage” value at carbonic anhydrase II [3] (time 38 min) turned out to be 9%. In addition, on carbonic anhydrase II [3] (time 1500 min), the “A2, percentage” value worked out at 0%; the “A3-5, percentage” value is reported as 2%; the “A6-15, percentage” value is recorded as 0%; the “M (monomer), percentage” value worked out at 89%. Moreover, the “Large multimers, percentage” value at carbonic anhydrase II [3] (time 1500 min) was determined as 9%. Moreover, in [4] (setting [15]), the ka is 40000 M⁻¹ s⁻¹ and the kd was 0.094 s⁻¹. In experiment [4] (setting [16]), the ka/ka0 is given as 0.91 and the kd/kd0 is 6.7. Further, in experiment [4], the “effect on association rate of insulin and anti-insulin” value is reported as “insignificant effect”; the “effect on dissociation rate of insulin and anti-insulin” value was “significantly increases”. For the same compound, in experiment [4] (listed as guanidinium), the “effect on association rate of insulin and anti-insulin” value was “little effect”; the “effect on dissociation rate of insulin and anti-insulin” value is “accelerated”.
`NC(N)=O` [Urea]: the “Experimental ΓXP” value on RNase T1 is given as 6.4^a.
Usually Kd stands for the concentration at which binding is half-saturated. A word on the koff: it is the first-order rate constant of dissociation. In general, kon refers to a measure of how fast the partners come together. “Monoclonal anti-insulin (10-130 clone M322214), Fitzgerald Industries (antibody)”: the Kd amounted to 1.8 µM in experiment [5], 2.4 µM in experiment [11] and 0.32 µM in [12]. The ka/ka0 in [6] is 0.91; in [13], 0.27. Also, the koff in experiment [7] is 0.014 s⁻¹; in experiment [8] it was 0.022 s⁻¹; in experiment [10], 0.094 s⁻¹. Moreover, the kon in [7] came to 44000 M⁻¹ s⁻¹; in experiment [8], 12000 M⁻¹ s⁻¹; in experiment [10], 40000 M⁻¹ s⁻¹. For the same compound, the kd/kd0 turned out to be 1.6 in experiment [9] and 6.7 in experiment [14].

The values above are taken from patent US20080247991A1, “Solution Additives For the Attenuation of Protein Aggregation” (priority 2004, published 2008).
